Measured values reported in US20250346606A1, “CAMPTOTHECIN COMPOUND, PREPARATION METHOD THEREFOR, AND APPLICATION THEREOF” (SICHUAN KELUN-BIOTECH BIOPHARMACEUTICAL CO., LTD., priority 2021, published 2025).
Read-outs that look alike come from different tables or passages of the source.

What was measured:
NCI-N87 cells = assay: Inhibitory effect of compounds on NCI-N87 cell proliferation; format: cell-based, Human
Method: (1) Cell plating: First, tumor cells NCI-N87 were cultured in corresponding medium, then digested with trypsin, centrifuged, resuspended, and counted, and the cells were adjusted to an appropriate concentration for plating.
(§1) Co-incubation of the compound of the present disclosure and tumor cells: after the cells adhered to the wall, the medium was removed, and the diluted bioactive molecule (the compound of the present disclosure) was added to the wells of the above plate, and incubated for 72 h.
(§2) In vitro cell viability detection: After the incubation, 50 μL of Cell Counting-Lite™ 2.0 reagent (Vazyme/Novazyme) was added to each well, shaken and mixed well in the dark, reacted for 10 minutes, and then the detection was carried out with a microplate reader (manufacturer: BMG, Model: PHERAStar-FS) for reading. The background RLU was obtained by using cell-free medium (with Cell Counting-Lite™), and the vehicle RLU was obtained by using cell-containing medium (with Cell Counting-Lite™). Cell inhibition rate=1−(sample RLU−background RLU)/(solvent RLU−background RLU)×100%. According to the four-parameter model fitting curve, the half maximal inhibitory concentration (IC50) of the compound was calculated, and the detection results were shown in Table 12.

HT29 cells = assay: Inhibitory effect of compounds on HT29 cell proliferation; format: cell-based, Human; details: read-out: IC50, inhibitory activity on HT29 cell proliferation
Method: (1) Cell plating: First, tumor cells HT29 were cultured in corresponding medium, then digested with trypsin, centrifuged, resuspended, and counted, and the cells were adjusted to an appropriate concentration for plating.
as §1
as §2, with “2.” for “12.”

HCC1806 cells = assay: Inhibitory effect of compounds on HCC1806 cell proliferation; format: cell-based, Human
Method: (1) Cell plating: First, tumor cells HCC1806 were cultured in corresponding medium, then digested with trypsin, centrifuged, resuspended, and counted, and the cells were adjusted to an appropriate concentration for plating.
as §1
as §2, with “6.” for “12.”

NCI-H358 cells = assay: Inhibitory effect of compounds on NCI-H358 cell proliferation; format: cell-based, Human
Method: (1) Cell plating: First, tumor cells NCI-H358 were cultured in corresponding medium, then digested with trypsin, centrifuged, resuspended, and counted, and the cells were adjusted to an appropriate concentration for plating.
as §1
as §2, with “10.” for “12.”

MDA-MB-453 cells = assay: Inhibitory effect of compounds on MDA-MB-453 cell proliferation; format: cell-based; details: MDA-MB-453 human breast cancer cells, 72 h incubation, Cell Counting-Lite 2.0
Method: (1) Cell plating: First, tumor cells MDA-MB-453 were cultured in corresponding medium, then digested with trypsin, centrifuged, resuspended, and counted, and the cells were adjusted to an appropriate concentration for plating.
as §1
as §2, with “22.” for “12.”

[1] = Homo sapiens, NCI-N87, 72 h, read-out: IC50, inhibitory activity on NCI-N87 cell proliferation, NCI-N87 human gastric cancer cells, 72 h incubation, Cell Counting-Lite 2.0
[2] = HCC1806 human breast squamous carcinoma cells, 72 h incubation, Cell Counting-Lite 2.0, read-out: IC50, inhibitory activity on HCC1806 cell proliferation
[3] = NCI-H358 human non-small cell lung cancer cells, 72 h incubation, Cell Counting-Lite 2.0, read-out: IC50, inhibitory activity on NCI-H358 cell proliferation
[4] = NCI-N87 human gastric cancer cells, 72 h incubation, Cell Counting-Lite 2.0, read-out: IC50, inhibitory activity on NCI-N87 cell proliferation
[5] = read-out: IC50, inhibitory activity on HCC1806 cell proliferation, HCC1806 human breast squamous carcinoma cells, 72 h incubation, Cell Counting-Lite 2.0
[6] = Homo sapiens, NCI-H358, 72 h, read-out: IC50, inhibitory activity on NCI-H358 cell proliferation, NCI-H358 human non-small cell lung cancer cells, 72 h incubation, Cell Counting-Lite 2.0
[7] = read-out: IC50, inhibitory activity on NCI-N87 cell proliferation, NCI-N87 human gastric cancer cells, 72 h incubation, Cell Counting-Lite 2.0

CC[C@@]1(O)C(=O)OCc2c1cc1n(c2=O)Cc2c-1nc1cc(F)c(Cl)c3c1c2[C@H](N)CC3 (single isomer, unassigned) [Example 8 (3-1-B)]
IC50 (NCI-N87 cells; [1]): 1.34 nM
IC50 (HT29 cells; Homo sapiens, HT-29, 72 h): 0.71 nM

CC[C@@]1(O)C(=O)OCc2c1cc1n(c2=O)Cc2c-1nc1cc(Cl)c(C)c3c1c2[C@H](NC(=O)CO)CC3 [Example 3 (2-2-B), N-((1R,9S)-5-chloro-9-ethyl-9-hydroxy-4-methyl-10,13-dioxo-2,3,9,10,13,15-hexahydro-1H,12H-benzo[de]pyrano[3′,4′:6,7]indolizino[1,2-b]quinolin-1-yl)-2-hydroxyacetamide]
IC50 (HT29 cells; Homo sapiens, HT-29, 72 h): 7.52 nM

CC[C@@]1(O)C(=O)OCc2c1cc1n(c2=O)Cc2c-1nc1cc(Cl)c(C)c3c1c2[C@@H](NC[C@@H](C)O)CC3 [Example 24 (2-27-A), (2R)—N-((1S,9S)-5-Chloro-9-ethyl-9-hydroxy-4-methyl-10,13-dioxo-2,3,9,10,13,15-hexahydro-1H,12H-benzo[de]pyrano[3′,4:6,7]indolizino[1,2-b]quinolin-1-yl)-2-hydroxypropylamine]
IC50 (HCC1806 cells; [2]): 4.55 nM
IC50 (NCI-H358 cells; [3]): 56.5 nM
IC50 (NCI-N87 cells; [4]): 8.32 nM
IC50 (MDA-MB-453 cells): 11.8 nM

CC[C@@]1(O)C(=O)OCc2c1cc1n(c2=O)Cc2c-1nc1cc(F)c(Cl)c3c1c2C(NC(=O)C(O)C1CC1)CC3 (single isomer, unassigned) [Example 16 (3-12-A)]
IC50 (HCC1806 cells; [5]): 0.16 nM
IC50 (NCI-H358 cells; [6]): 15.4 nM
IC50 (NCI-N87 cells; [7]): 0.44 nM
IC50 (MDA-MB-453 cells): 0.47 nM

CC[C@@]1(O)C(=O)OCc2c1cc1n(c2=O)Cc2c-1nc1cc(F)c(C)c3c1c2[C@@](C)(NC(=O)C1(O)CC1)CC3 (single isomer, unassigned) [Example 14 (5-16-A)]
IC50 (HT29 cells; Homo sapiens, HT-29, 72 h): 3.87 nM

CC[C@@]1(O)C(=O)OCc2c1cc1n(c2=O)Cc2c-1nc1cc(F)c(Cl)c3c1c2C(NC(=O)C(O)C1CC1)CC3 (single isomer, unassigned) [Example 16 (3-12-B)]
IC50 (HCC1806 cells; [5]): 1.76 nM
IC50 (NCI-H358 cells; read-out: IC50, inhibitory activity on NCI-H358 cell proliferation, NCI-H358 human non-small cell lung cancer cells, 72 h incubation, Cell Counting-Lite 2.0): 19.8 nM
IC50 (NCI-N87 cells; [7]): 3.45 nM
IC50 (MDA-MB-453 cells): 4.32 nM

CC[C@@]1(O)C(=O)OCc2c1cc1n(c2=O)Cc2c-1nc1cc(F)c(C3CC3)c3c1c2[C@@H](NC(=O)CO)CC3 [Example 19 (5-22-A), N-((1S,9S)-4-cyclopropyl-9-ethyl-5-fluoro-9-hydroxy-10,13-dioxo-1,2,3,9,10,12,13,15-tetrahydrobenzo[de]pyrano[3′,4′:6,7]indolizino[1,2-b]quinolin-1-yl)-2-hydroxyacetamide]
IC50 (HCC1806 cells; [2]): 2.57 nM
IC50 (NCI-H358 cells; [3]): 29.9 nM
IC50 (NCI-N87 cells; [4]): 3.35 nM
IC50 (MDA-MB-453 cells): 7.34 nM

CC[C@@]1(O)C(=O)OCc2c1cc1n(c2=O)Cc2c-1nc1cc(Cl)c(C)c3c1c2[C@H](NC[C@@H](C)O)CC3 [Example 24 (2-27-B), (2R)—N-((1R,9S)-5-chloro-9-ethyl-9-hydroxy-4-methyl-10,13-dioxo-2,3,9,10,13,15-hexahydro-1H,12H-benzo[de]pyrano[3′,4:6,7]indolizino[1,2-b]quinolin-1-yl)-2-hydroxypropylamine]
IC50 (HCC1806 cells; [2]): 3.93 nM
IC50 (NCI-H358 cells; [3]): 69.1 nM
IC50 (NCI-N87 cells; [4]): 14.7 nM

CC[C@@]1(O)C(=O)OCc2c1cc1n(c2=O)Cc2c-1nc1cc(Cl)c(C)c3c1c2[C@@H](NCC(C)(C)O)CC3 [Example 6 (2-17-A), N-((1S,9S)-5-chloro-9-ethyl-9-hydroxy-4-methyl-10,13-dioxo-2,3,9,10,13,15-hexahydro-1H,12H-benzo[de]pyrano[3′,4′:6,7]indolizino[1,2-b]quinolin-1-yl)-2-hydroxy-2-methylpropylamine]
IC50 (HT29 cells; Homo sapiens, HT-29, 72 h): 1.24 nM

CC[C@@]1(O)C(=O)OCc2c1cc1n(c2=O)Cc2c-1nc1cc(F)c(C)cc1c2CCN(C(=O)CO)C(C)C [Example 10 (4-12), (S)—N-(2-(4-ethyl-8-fluoro-4-hydroxy-9-methyl-3,14-dioxo-3,4,12,14-tetrahydro-1H-pyrano[3′,4′:6,7]indolizino[1,2-b]quinolin-11-yl)ethyl)-2-hydroxy-N-isopropylacetamide]
IC50 (HT29 cells; HT-29, HT29 human colon cancer cells, 72 h incubation, Cell Counting-Lite 2.0): 4.79 nM

CC[C@@]1(O)C(=O)OCc2c1cc1n(c2=O)Cc2c-1nc1cc(F)c(Cl)c3c1c2[C@@H](NC[C@H](C)O)CC3 (single isomer, unassigned) [Example 17 (3-7-A)]
IC50 (NCI-H358 cells; [6]): 49.4 nM
IC50 (NCI-N87 cells; [1]): 5.32 nM
IC50 (MDA-MB-453 cells; Homo sapiens, MDA-MB-453, 72 h): 6.23 nM

CC[C@@]1(O)C(=O)OCc2c1cc1n(c2=O)Cc2c-1nc1cc(Cl)c(C)c3c1c2[C@H](NC(=O)[C@H](O)C1CC1)CC3 [Example 5 (2-12-D), (2R)—N-((1R,9S)-5-chloro-9-ethyl-9-hydroxy-4-methyl-10,13-dioxo-2,3,9,10,13,15-hexahydro-1H,12H-benzo[de]pyrano[3′,4′:6,7]indolizino[1,2-b]quinolin-1-yl)-2-cyclopropyl-2-hydroxyacetamide]
IC50 (HT29 cells; Homo sapiens, HT-29, 72 h): 3.29 nM

CC[C@@]1(O)C(=O)OCc2c1cc1n(c2=O)Cc2c-1nc1cc(F)c(Cl)c3c1c2[C@H](NC[C@@H](C)O)CC3 (single isomer, unassigned) [Example 25 (3-26-B)]
IC50 (HCC1806 cells; Homo sapiens, HCC1806, 72 h, read-out: IC50, inhibitory activity on HCC1806 cell proliferation, HCC1806 human breast squamous carcinoma cells, 72 h incubation, Cell Counting-Lite 2.0): 4.93 nM
IC50 (NCI-N87 cells; [1]): 25.3 nM

CC[C@@]1(O)C(=O)OCc2c1cc1n(c2=O)Cc2c-1nc1cc(Cl)c(C)c3c1c2[C@H](NCC(C)(C)O)CC3 [Example 6 (2-17-B), N-((1R,9S)-5-chloro-9-ethyl-9-hydroxy-4-methyl-10,13-dioxo-2,3,9,10,13,15-hexahydro-1H, 12H-benzo[de]pyrano[3′,4′:6,7]indolizino[1,2-b]quinolin-1-yl)-2-hydroxy-2-methylpropylamine]
IC50 (HT29 cells; Homo sapiens, HT-29, 72 h): 1.59 nM

CC[C@@]1(O)C(=O)OCc2c1cc1n(c2=O)Cc2c-1nc1cc(F)c(Cl)c3c1c2[C@@H](N)CC3 (single isomer, unassigned) [Example 8 (3-1-A)]
IC50 (NCI-N87 cells; [1]): 0.37 nM
IC50 (HT29 cells; Homo sapiens, HT-29, 72 h): 0.16 nM
